The results in this text go back to ChEMBL document CHEMBL1146829, “Acetylene-based analogues of thiolactomycin, active against Mycobacterium tuberculosis mtFabH fatty acid condensing enzyme” (Bioorg Med Chem Lett, 2004).

Molecules are shown by their SMILES.

This experiment is described as follows: Inhibitory activity against recombinant Mycobacterium tuberculosis beta-ketoacyl-Acyl Carrier Protein synthase mtFabH condensing enzyme.

On to `C#CCC1(C)SC(=O)C(C)=C1O` (centres undefined), for which the IC50 was 100 µM.

For `COC(=O)c1ccc(C#CCC2(C)SC(O)=C(C)C2=O)cc1` (centres undefined), the IC50 amounted to 74 µM.

Turning to `CC(=O)c1ccc(C#CCC2(C)SC(O)=C(C)C2=O)cc1O` (centres undefined), the half-inhibitory concentration (IC50) turned out to be 7 µM.

With `CC1=C(O)C(C)(CC#Cc2ccccc2C#N)SC1=O` (centres undefined), the IC50 amounted to 48 µM.

Take `CC1=C(O)C(C)(Cc2ccc(-c3ccc(COCc4ccccc4)cc3)cc2)SC1=O` (centres undefined): the IC50 was 17 µM.

With `CC1=C(O)C(C)(CC#Cc2ccc([N+](=O)[O-])cc2)SC1=O` (centres undefined), the IC50 worked out at 34 µM.

Turning to `CC1=C(O)C(C)(CC#Cc2ccc(C#N)cc2)SC1=O` (centres undefined), the IC50 turned out to be 7 µM.

On to `CC(=O)c1ccc(C#CCC2(C)SC(O)=C(C)C2=O)cc1` (centres undefined), for which the IC50 amounted to 4 µM.

As for `C=C/C(C)=C/[C@@]1(C)SC(=O)C(C)=C1O` [THIOLACTOMYCIN], the IC50 was 74.9 µM.
